From publication PMC11150261, “Evaluation of antibacterial, cytotoxicity, and apoptosis activity of novel chromene-sulfonamide hybrids synthesized under solvent-free conditions and 3D-QSAR modeling studies” (Scientific Reports, 2024)
Converted amounts (≈) assume the structure as drawn. “Also recorded” adds a separate entry of the source. Where two headings read alike, the source gives them in different places.

Legend:
[1] = Apoptosis Annexin V binding assay (flow cytometry); type: cell-based; details: mouse, L929 fibroblast cells; L929, IC50 concentration, Annexin V-FITC/PI
Experimental: (§1) To detect apoptosis, the Annexin V binding assay was used. The assay was performed according to the manufacturer's instructions using a FITC Annexin V Apoptosis Detection Kit with PI from BioLegend® (San Diego, California). To conduct this test, the fibroblast L929 cell line (Pasteur Institute, Tehran, Iran) was treated with various concentrations of the newly synthesized compounds and then incubated for 24 h at 37 °C with 5% CO2. Subsequently, each well's supernatant was removed and the cells were washed with PBS. Each well was then filled with 500 μl of Annexin-binding buffer (10 mM HEPES, 140 mM NaCl, and 2.5 mM CaCl2, pH 7.4) and 10 μl of Annexin V and PI. For 15 min, the plates were incubated at room temperature and kept away from light. After incubation, using a BD FACSCalibur flow cytometer (Biosciences, San Jose, CA, USA), the cells were examined after incubation. FlowJo software (version 10.5.3, TreeStar Incorporated, Ashland, OR) was used to analyze flow cytometry data.

[2] = system: fibroblast L929 cell line; test: Apoptosis Annexin V binding assay (flow cytometry); type: cell-based; details: for induced cell death: L929 cells, 24 h, IC50 concentration of each compound; for apoptotic effects: at the IC50 concentration
Experimental: as §1

fibroblast L929 cells = test: Cytotoxicity assay by MTT; type: cell-based; details: Mus musculus, fibroblast L929 cell line, 24 h
Experimental: MTT was applied to evaluate the cytotoxicity of the newly synthesized compounds against fibroblast L929 cells (Pasteur Institute, Tehran, Iran). Briefly, 100 μl of cell suspension (1 × 10^4 cells/well) in RPMI 1640 medium, as seeded in 96-well microplates and incubated for 24 h (37 °C, 5% CO2 air humidified). After removing the old media, 100 µl of each of the newly synthesized compounds was added to each well at different concentrations. The plates were incubated for another 24 h in the same condition. To determine the positive and negative controls, doxorubicin and DMSO were used. Cell survival was determined by adding 10 µL of an MTT solution (5 mg/ml in PBS) to each well and incubating at 37 °C for 3 h. The previous MTT-containing media was then removed, and 100 µL DMSO was pipetted into each well to dissolve the produced formazan crystals. Using an ELISA plate reader (Startfix-2100, Awareness, USA), absorbance was measured at 570 nm. By plotting the percentage of cytotoxicity versus concentration of the produced compounds, the concentrations that inhibit half of the cell population (IC50) were determined. A mean and standard deviation (SD) are used to represent the results. The percentage cell viability was calculated using the formula: Viability=Absorbance \, of \, treated \, cells-background \, absorbance(b)/Absorbance \, of \, untreated \, cells(c)-background \, absorbance(b)×100 where (b) = blank, and (c) = control.

E. coli ATCC 25922 = test: Broth microdilution MIC; type: cell-based; details: for MIC: Escherichia coli, ATCC25922; for MIC effect on E. coli: SAR effect diagram
Experimental: (§2) A broth microdilution method was utilized to explore the minimum inhibitory concentrations (MIC) of all the newly synthesized compounds against E. coli ATCC 25922 and S. aureus ATCC 25923. Test compounds were prepared using dimethyl sulfoxide (DMSO) as a stock solution, followed by serial dilutions in Mueller Hinton broth containing up to one percent DMSO. At the end, a diluted bacterial suspension from a 0.5 McFarland tube was added to all the wells (the final volume of each well was 1 × 10^5 CFU/ml). In the growth control, a culture medium with bacteria was used as a positive control, and a culture medium without bacteria was used as a negative control (sterility control). The MIC was the lowest concentration of the synthesized compounds that produced no growth on the plate. Sulfisoxazole, functioning as a sulfonamide antibiotic, and gentamicin were employed in a comparative analysis of antibacterial activity, cytotoxicity, and apoptosis assessment.

S. aureus ATCC 25923 = test: Broth microdilution MIC; type: cell-based; details: for MIC effect on S. aureus: SAR effect diagram, Table 6; for MIC: Staphylococcus aureus, ATCC25923
Experimental: as §2

[3] = Table 6, antibacterial activity against E. coli, read-out: MIC for E. coli ATCC 25922
[4] = microdilution method, read-out: Minimum inhibitory concentrations (MIC) E. coli ATCC 25922
[5] = Table 7, read-out: MIC for S. aureus
[6] = microdilution method, read-out: Minimum inhibitory concentrations (MIC) S. aureus ATCC 25923

Row | SMILES | viability at 24 h [1] | induced cell death [2] | IC50 (fibroblast L929 cells) | antibacterial effect on E. coli (MIC results) (E. coli ATCC 25922) | MIC (E. coli ATCC 25922; [3]) | MIC (E. coli ATCC 25922; [4]) | MIC effect on E. coli (E. coli ATCC 25922) | antibacterial effect on S. aureus (MIC results) (S. aureus ATCC 25923) | MIC effect on S. aureus (S. aureus ATCC 25923) | MIC (S. aureus ATCC 25923; [5]) | MIC (S. aureus ATCC 25923; [6]) | melting point | apoptotic effects [2]
1 | CC(=O)Nc1ccc(S(=O)(=O)Nc2ccc3c(c2)OC(N)=C(C#N)C3c2cccc(Oc3ccccc3)c2)cc1 (centres unmarked) [6b, N-[4-[2-amino-3-cyano-4-(3-phenoxy-phenyl)-4H-chromene-7-ylsulfamoyl]-phenyl}-acetamide] | 46% | 53.85% | 114 µg/mL (≈ 206 µM) | robust antibacterial effect | 64 µg/mL (≈ 116 µM) | 64 µg/mL (≈ 116 µM) | Positive | robust antibacterial effect | Neutral | 256 µg/mL (≈ 463 µM) | 256 µg/mL (≈ 463 µM) | – | –
2 | COc1ccc(C2C(C#N)=C(N)Oc3cc(NS(=O)(=O)c4ccc(C)cc4)ccc32)cc1OC (centres unmarked) [3b, N-[2-amino-3-cyano-4-(3,4-dimethoxy-phenyl)-4H-chromene-7-yl]-4-methyl-benzene sulfonamide] | – | – | 219 µg/mL (≈ 459 µM) | – | > 512 µg/mL | > 512 µg/mL | neutral or negative; also recorded: Negative | – | Negative | > 512 µg/mL | > 512 µg/mL | 127 to 130 °C | –
3 | CC(=O)Nc1ccc(S(=O)(=O)Nc2ccc3c(c2)OC(N)=C(C#N)C3c2ccc(Cl)cc2)cc1 (centres unmarked) [8b, N-[4-[2-amino-3-cyano-4-(4-chloro-phenyl)-4H-chromene-7-ylsulfamoyl]-phenyl}-acetamide] | 43.2% | 56.8% | 90 µg/mL (≈ 182 µM) | robust antibacterial effect | 64 µg/mL (≈ 129 µM) | 64 µg/mL (≈ 129 µM) | Positive | robust antibacterial effect | Positive | 32 µg/mL (≈ 64.7 µM) | 32 µg/mL (≈ 64.7 µM) | – | –
4 | CC(=O)Nc1ccc(S(=O)(=O)Nc2ccc3c(c2)OC(N)=C(C#N)C3c2ccc(F)cc2)cc1 (centres unmarked) [7b, N-[4-[2-amino-3-cyano-4-(4-fluoro-phenyl)-4H-chromene-7-ylsulfamoyl]-phenyl}-acetamide] | – | – | 182 µg/mL (≈ 380 µM) | – | 128 µg/mL (≈ 267 µM) | 128 µg/mL (≈ 267 µM) | Positive | – | Positive | 128 µg/mL (≈ 267 µM) | 128 µg/mL (≈ 267 µM) | 230 to 233 °C | –
5 | CNC(C)C1CCC(N)C(OC2C(N)CC(N)C(OC3OCC(C)(O)C(NC)C3O)C2O)O1 (centres unmarked) [Gentamicin, reference compound] | – | – | 182 µg/mL (≈ 381 µM) | – | – | 4 µg/mL (≈ 8.38 µM) | – | – | – | – | 4 µg/mL (≈ 8.38 µM) | – | neither Sulfisoxazole nor Gentamicin demonstrated apoptotic effects
6 | N#CC1=C(N)Oc2cc(NS(=O)(=O)c3ccccc3)ccc2C1c1ccccc1F (centres unmarked) [11b, N-(2-amino-3-cyano-4-(2-fluorophenyl)-4H-chromen-7-yl) benzenesulfonamide] | – | – | 162 µg/mL (≈ 384 µM) | – | 256 µg/mL (≈ 607 µM) | 256 µg/mL (≈ 607 µM) | neutral or negative; also recorded: Neutral | – | Neutral | 256 µg/mL (≈ 607 µM) | 256 µg/mL (≈ 607 µM) | 122 to 125 °C | –
7 | CC(=O)Nc1ccc(S(=O)(=O)Nc2ccc3c(c2)OC(N)=C(C#N)C3c2ccccc2)cc1 (centres unmarked) [5b, N-[4-(2-amino-3-cyano-4-phenyl-4H-chromen-7-ylsulfamoyl)-phenyl]-acetamide] | – | – | 173 µg/mL (≈ 376 µM) | – | 128 µg/mL (≈ 278 µM) | 128 µg/mL (≈ 278 µM) | Positive | – | Positive | 128 µg/mL (≈ 278 µM) | 128 µg/mL (≈ 278 µM) | 240 to 243 °C | –
8 | CSc1ccc(C2C(C#N)=C(N)Oc3cc(NS(=O)(=O)c4ccccc4)ccc32)cc1 (centres unmarked) [10b, N-(2-amino-3-cyano-4-(4-(methylthio)phenyl)-4H-chromen-7-yl)benzenesulfonamide] | – | – | 247 µg/mL (≈ 549 µM) | – | 256 µg/mL (≈ 569 µM) | 256 µg/mL (≈ 569 µM) | neutral or negative; also recorded: Neutral | – | Negative | > 512 µg/mL | > 512 µg/mL | 135 to 138 °C | –
9 | Cc1noc(NS(=O)(=O)c2ccc(N)cc2)c1C [Sulfisoxazole, reference compound] | – | – | 218 µg/mL (≈ 816 µM) | – | – | 256 µg/mL (≈ 958 µM) | – | – | – | – | 256 µg/mL (≈ 958 µM) | – | neither Sulfisoxazole nor Gentamicin demonstrated apoptotic effects
10 | COc1ccc(C2C(C#N)=C(N)Oc3cc(NS(=O)(=O)c4ccc(NC(C)=O)cc4)ccc32)cc1OC (centres unmarked) [9b, N-[4-[2-amino-3-cyano-4-(3,4-dimethoxy-phenyl)-4H-chromene-7-ylsulfamoyl]-phenyl}-acetamide] | – | – | 234 µg/mL (≈ 450 µM) | – | 256 µg/mL (≈ 492 µM) | 256 µg/mL (≈ 492 µM) | neutral or negative; also recorded: Neutral | – | Negative | > 512 µg/mL | > 512 µg/mL | 235 to 238 °C | –
11 | COc1ccccc1C1C(C#N)=C(N)Oc2cc(NS(=O)(=O)c3ccc(C)cc3)ccc21 (centres unmarked) [2b, N-[2-amino-3-cyano-4-(2-methoxy-phenyl)-4H-chromene-7-yl]-4-methyl-benzene sulfonamide] | – | – | 229 µg/mL (≈ 512 µM) | – | 128 µg/mL (≈ 286 µM) | 128 µg/mL (≈ 286 µM) | Positive | – | Negative | > 512 µg/mL | > 512 µg/mL | 180 to 183 °C | –
12 | Cc1ccc(S(=O)(=O)Nc2ccc3c(c2)OC(N)=C(C#N)C3c2ccc(Cl)cc2)cc1 (centres unmarked) [4b, N-[2-amino-3-cyano-4-(4-chloro-phenyl)-4H-chromene-7-yl]-4-methyl-benzene sulfonamide] | 77.4% | 22.2% | 152 µg/mL (≈ 336 µM) | – | 128 µg/mL (≈ 283 µM) | 128 µg/mL (≈ 283 µM) | Positive | – | Neutral | 256 µg/mL (≈ 566 µM) | 256 µg/mL (≈ 566 µM) | – | –
